Drawing on US12398154B2, “Azaquinazoline pan-KRas inhibitors” (Mirati Therapeutics, Inc., priority 2020, dated 2025), this text covers IC50 for 13 compounds.

Usually IC50 stands for the midpoint of a concentration-inhibition curve. One may read the pIC50 as the negative decadic logarithm of the IC50, by convention in mol/L.

In one test the target is T1, KRas Q61H (Homo sapiens, UniProt P01116, Q61H).
T1 construct: Biotinylated KRas (corresponding to amino acids 1-169, produced at Accelegan Inc.); biotin (biotinylated); purchased Accelegan Inc
As to the kind of experiment: KRas binding assay (TR-FRET displacement).

The target in a further test is KRas G12D (Homo sapiens, UniProt P01116, G12D). As to the kind of experiment: biochemical.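 Note: TR-FRET displacement binding assay on KRas, read after a one-hour incubation at room temperature, IC50 fitted from percent-of-control values.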
A further test concerns the target KRas WT (Homo sapiens, UniProt P01116). Put plainly: biochemical.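 Note: binding to KRas read as TR-FRET displacement after a one-hour room-temperature incubation, IC50 derived from percent-of-control values.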
A further test deals with KRas G12A (Homo sapiens, UniProt P01116, G12A). Put plainly: biochemical.
The target of the next test is KRas G12R (Homo sapiens, UniProt P01116, G12R). Put plainly: biochemical.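 Note: TR-FRET displacement assay of compound binding to KRas, read after one hour at room temperature, potency from a four-parameter fit of percent-of-control values.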
The target of another test is KRas G12C (Homo sapiens, UniProt P01116, G12C). As to the kind of experiment: biochemical.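 Note: binding to KRas assessed by TR-FRET displacement after one hour incubation at room temperature, potency fitted from percent-of-control values.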
The target of another test is KRas G12V (Homo sapiens, UniProt P01116, G12V). As to the kind of experiment: biochemical.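 Note: KRas binding measured by TR-FRET displacement at room temperature, IC50 fitted from percent of control values.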
A further test deals with KRas G12S (Homo sapiens, UniProt P01116, G12S). As to the kind of experiment: biochemical.
The next test concerns the target T2, KRas G13D (Homo sapiens, UniProt P01116, G13D).
T2 construct: Biotinylated KRas (corresponding to amino acids 1-169, produced at Accelegan Inc.); biotin (biotinylated); purchased Accelegan Inc
As to the kind of experiment: KRas binding assay (TR-FRET displacement). For orientation: In TR-FRET formats the signal depends on donor and acceptor labels being close together.

Molecules are shown by their SMILES. pIC50: −log10 of the molar value.

T1 sequence (P01116 1-169 isoform P01116-2 Q61H): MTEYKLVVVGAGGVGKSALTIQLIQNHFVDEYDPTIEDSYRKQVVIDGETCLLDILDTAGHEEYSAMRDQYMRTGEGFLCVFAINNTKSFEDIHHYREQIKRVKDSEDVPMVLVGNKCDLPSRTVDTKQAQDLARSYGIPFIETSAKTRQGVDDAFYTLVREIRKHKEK
Chain of KRas G12V (P01116 1-169 isoform P01116-2 G12V): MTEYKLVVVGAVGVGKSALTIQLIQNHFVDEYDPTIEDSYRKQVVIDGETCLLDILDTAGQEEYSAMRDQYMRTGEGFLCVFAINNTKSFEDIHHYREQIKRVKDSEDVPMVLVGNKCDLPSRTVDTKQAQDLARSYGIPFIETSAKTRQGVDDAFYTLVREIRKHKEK
Chain of KRas G12A (P01116 1-169 isoform P01116-2 G12A): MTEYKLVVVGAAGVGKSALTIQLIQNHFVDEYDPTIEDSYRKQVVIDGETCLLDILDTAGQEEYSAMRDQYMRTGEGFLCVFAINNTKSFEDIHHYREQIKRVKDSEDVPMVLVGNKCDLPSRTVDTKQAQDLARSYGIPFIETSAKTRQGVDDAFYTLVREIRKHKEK
Chain of KRas WT (P01116 1-169 isoform P01116-2): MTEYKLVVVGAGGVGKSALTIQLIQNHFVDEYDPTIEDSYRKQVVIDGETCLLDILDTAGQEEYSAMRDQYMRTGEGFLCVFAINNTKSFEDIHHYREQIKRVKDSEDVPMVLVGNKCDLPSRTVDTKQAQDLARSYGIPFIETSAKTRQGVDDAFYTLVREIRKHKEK
Chain of KRas G12C (P01116 1-169 isoform P01116-2 G12C): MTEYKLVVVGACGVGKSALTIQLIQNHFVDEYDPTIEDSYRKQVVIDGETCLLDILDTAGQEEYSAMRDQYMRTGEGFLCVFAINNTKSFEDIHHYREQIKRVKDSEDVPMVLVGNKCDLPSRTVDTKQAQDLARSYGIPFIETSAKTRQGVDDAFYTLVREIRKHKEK
Chain of KRas G12R (P01116 1-169 isoform P01116-2 G12R): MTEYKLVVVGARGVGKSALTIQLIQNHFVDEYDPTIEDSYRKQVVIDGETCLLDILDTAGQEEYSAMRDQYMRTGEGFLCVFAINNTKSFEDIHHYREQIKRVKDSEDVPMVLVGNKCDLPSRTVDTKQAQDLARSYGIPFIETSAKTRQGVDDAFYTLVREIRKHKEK
T2 sequence (P01116 1-169 isoform P01116-2 G13D): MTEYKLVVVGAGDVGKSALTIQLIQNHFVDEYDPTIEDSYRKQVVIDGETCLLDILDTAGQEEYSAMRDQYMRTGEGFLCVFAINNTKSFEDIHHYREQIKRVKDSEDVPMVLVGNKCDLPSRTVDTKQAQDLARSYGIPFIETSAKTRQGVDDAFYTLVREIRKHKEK
Chain of KRas G12D (P01116 1-169 isoform P01116-2 G12D): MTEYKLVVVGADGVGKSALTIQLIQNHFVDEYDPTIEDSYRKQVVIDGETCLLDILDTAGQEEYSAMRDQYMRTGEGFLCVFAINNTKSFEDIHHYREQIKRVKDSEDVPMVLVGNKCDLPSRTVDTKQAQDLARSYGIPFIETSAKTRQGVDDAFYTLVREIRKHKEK
Chain of KRas G12S (P01116 1-169 isoform P01116-2 G12S): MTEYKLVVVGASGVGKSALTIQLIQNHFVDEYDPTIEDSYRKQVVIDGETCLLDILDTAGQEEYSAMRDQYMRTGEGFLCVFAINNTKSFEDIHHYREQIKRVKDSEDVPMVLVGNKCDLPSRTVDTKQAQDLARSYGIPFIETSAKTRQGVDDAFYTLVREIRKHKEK

For the compound `OC1CCC12CCCN(c1nc(OCC34CCCN3CCC4)nc3c(F)c(-c4cccc5cccc(F)c45)ncc13)C2` (stereo not drawn) [Example 233, 6-(8-fluoro-7-(8-fluoronaphthalen-1-yl)-2-((tetrahydro-1H-pyrrolizin-7a(5H)-yl)methoxy)pyrido[4,3-d]pyrimidin-4-yl)-6-azaspiro[3.5]nonan-1-ol], the IC50 was 5350 nM on KRas Q61H and 7380 nM at KRas G13D. The pIC50 against KRas G12D was 5.17; on KRas WT, 5.37; on KRas G12A, 5.58; at KRas G12R, 5.25; against KRas G12C, 5.21; against KRas G12V, 5.33. This compound had a pIC50 against KRas G12S of 5.13.

For the compound `Fc1c(-c2cccc3cccc(F)c23)ncc2c(N3CCCC4(CC(F)C4)C3)nc(OCC34CCCN3CCC4)nc12` (stereo not drawn) [Example 234, 8-fluoro-4-(2-fluoro-6-azaspiro[3.5]nonan-6-yl)-7-(8-fluoronaphthalen-1-yl)-2-((hexahydro-1H-pyrrolizin-7a-yl)methoxy)pyrido[4,3-d]pyrimidine], the IC50 at KRas Q61H was determined as 2590 nM; on KRas G13D, 1980 nM. Moreover, the pIC50 on KRas G12D was 5.69; at KRas WT it was 5.58; at KRas G12A, 5.64; at KRas G12R, 5.73; on KRas G12C, 5.79; at KRas G12V, 5.80. Moreover, the pIC50 at KRas G12S is 5.75.

As for `OC1CC2(CCCN(c3nc(OCC45CCCN4CCC5)nc4c(F)c(-c5cccc6cccc(F)c56)ncc34)C2)C1` (stereo not drawn) [Example 235, 6-(8-fluoro-7-(8-fluoronaphthalen-1-yl)-2-((hexahydro-1H-pyrrolizin-7a-yl)methoxy)pyrido[4,3-d]pyrimidin-4-yl)-6-azaspiro[3.5]nonan-2-ol], the IC50 on KRas Q61H was determined as 3360 nM; on KRas G13D it was 2710 nM. Moreover, the pIC50 on KRas G12D was 5.58; on KRas WT, 5.58; against KRas G12A, 5.67; at KRas G12R, 5.54; on KRas G12C it was 5.78; on KRas G12V, 5.77. Moreover, the pIC50 on KRas G12S is 5.70.

As to `O=C1CC(CNc2nc(OCC34CCCN3CCC4)nc3c(F)c(-c4cccc5cccc(F)c45)ncc23)C(=O)N1` (stereo not drawn) [Example 236, 3-(((8-fluoro-7-(8-fluoronaphthalen-1-yl)-2-((hexahydro-1H-pyrrolizin-7a-yl)methoxy)pyrido[4,3-d]pyrimidin-4-yl)amino)methyl)pyrrolidine-2,5-dione], the IC50 at KRas Q61H was determined as 4440 nM; on KRas G13D, 2460 nM. In addition, the pIC50 against KRas G12D is 5.63; at KRas WT, 5.46; on KRas G12A it was 5.47; against KRas G12R, 5.47; on KRas G12C, 5.69; against KRas G12V it was 6.21. Also, the pIC50 on KRas G12S is 6.05.

On to `CNS(=O)(=O)C1CCCN(c2nc(OCC34CCCN3CCC4)nc3c(F)c(-c4cccc5cccc(F)c45)ncc23)C1` (stereo not drawn) [Example 237, 1-(8-fluoro-7-(8-fluoronaphthalen-1-yl)-2-((hexahydro-1H-pyrrolizin-7a-yl)methoxy)pyrido[4,3-d]pyrimidin-4-yl)-N-methylpiperidine-3-sulfonamide], for which the IC50 at KRas Q61H came out at 6380 nM; on KRas G13D, 8290 nM. Also, the pIC50 against KRas G12D is 5.02; against KRas WT it was 5.36; on KRas G12A, 5.27; against KRas G12R, 5.01; against KRas G12C it was 5.12; at KRas G12V, 5.12. The pIC50 on KRas G12S is 5.05.

With `O=S1(=O)CCCN1C1CCCN(c2nc(OCC34CCCN3CCC4)nc3c(F)c(-c4cccc5cccc(F)c45)ncc23)C1` (stereo not drawn) [Example 239, 2-(1-(8-fluoro-7-(8-fluoronaphthalen-1-yl)-2-((hexahydro-1H-pyrrolizin-7a-yl)methoxy)pyrido[4,3-d]pyrimidin-4-yl)piperidin-3-yl)isothiazolidine 1,1-dioxide], the values for the IC50 on KRas Q61H and at KRas G13D were 2670 nM and 1640 nM, respectively. In addition, the pIC50 is 5.06 against KRas G12D; 5.74 against KRas WT; 5.70 at KRas G12A; 5.32 at KRas G12R; 5.79 against KRas G12C; 5.31 on KRas G12V. Besides, on KRas G12S, the pIC50 was 5.66.

Turning to `NS(=O)(=O)NC1CCCN(c2nc(OCC34CCCN3CCC4)nc3c(F)c(-c4cccc5cccc(F)c45)ncc23)C1` (stereo not drawn) [Example 240, 8-fluoro-7-(8-fluoronaphthalen-1-yl)-2-(1,2,3,5,6,7-hexahydropyrrolizin-8-ylmethoxy)-4-[3-(sulfamoylamino)piperidin-1-yl]pyrido[4,3-d]pyrimidine], the IC50 on KRas Q61H amounted to 498 nM; at KRas G13D, 350 nM. Moreover, the pIC50 against KRas G12D is 5.94; against KRas WT it was 6.32; against KRas G12A, 6.23; on KRas G12R, 6.11; at KRas G12C, 6.22; on KRas G12V, 5.81. In addition, the negative-log IC50 (pIC50) against KRas G12S is 6.31.

In the case of `O=CNC1CCCN(c2nc(OCC34CCCN3CCC4)nc3c(F)c(-c4cccc5cccc(F)c45)ncc23)C1` (stereo not drawn) [Example 242, N-(1-(8-fluoro-7-(8-fluoronaphthalen-1-yl)-2-((hexahydro-1H-pyrrolizin-7a-yl)methoxy)pyrido[4,3-d]pyrimidin-4-yl)piperidin-3-yl)formamide], the IC50 was determined as 13600 nM at KRas Q61H and 7860 nM at KRas G13D. For the same compound, the negative-log IC50 (pIC50) at KRas G12D is 5.10; at KRas WT, 4.96; at KRas G12A, 5.09; at KRas G12R, 4.89; on KRas G12C, 5.16; at KRas G12V it was 5.12. At KRas G12S, this compound gave a pIC50 of 5.21.

As for `NC(=O)NC1CCN(c2nc(OCC34CCCN3CCC4)nc3c(F)c(-c4cccc5cccc(F)c45)ncc23)CC1` [Example 243, 1-(1-(8-fluoro-7-(8-fluoronaphthalen-1-yl)-2-((hexahydro-1H-pyrrolizin-7a-yl)methoxy)pyrido[4,3-d]pyrimidin-4-yl)piperidin-4-yl)urea], the IC50 was determined as 3580 nM on KRas Q61H and 2960 nM on KRas G13D. The pIC50 on KRas G12D is 4.60; at KRas WT, 5.48; against KRas G12A, 5.98; against KRas G12R it was 5.98; on KRas G12C it was 5.94; on KRas G12V it was 5.66. Also, the pIC50 at KRas G12S was 5.74.

On to `O=CNC1CCN(c2nc(OCC34CCCN3CCC4)nc3c(F)c(-c4cccc5cccc(F)c45)ncc23)CC1` [Example 244, N-(1-(8-fluoro-7-(8-fluoronaphthalen-1-yl)-2-((hexahydro-1H-pyrrolizin-7a-yl)methoxy)pyrido[4,3-d]pyrimidin-4-yl)piperidin-4-yl)formamide], for which the IC50 stood at 5080 nM at KRas Q61H and 4860 nM at KRas G13D. Further, the pIC50 was 4.74 against KRas G12D; 5.29 at KRas WT; 5.73 on KRas G12A; 5.51 against KRas G12R; 5.55 at KRas G12C; 5.45 against KRas G12V. At KRas G12S, the pIC50 is 5.51.

As for `O=S1(=O)NCCC2(CCCN(c3nc(OCC45CCCN4CCC5)nc4c(F)c(-c5cccc6cccc(F)c56)ncc34)C2)N1` (stereo not drawn) [Example 247, 8-(8-fluoro-7-(8-fluoronaphthalen-1-yl)-2-((hexahydro-1H-pyrrolizin-7a-yl)methoxy)pyrido[4,3-d]pyrimidin-4-yl)-2-thia-1,3,8-triazaspiro[5.5]undecane 2,2-dioxide], the figures for the IC50 at KRas Q61H and on KRas G13D were 2060 nM and 1180 nM, respectively. The pIC50 against KRas G12D was 6.37; on KRas WT it was 5.80; against KRas G12A, 5.68; at KRas G12R, 5.59; at KRas G12C, 5.57; against KRas G12V it was 5.74. Also, on KRas G12S, the pIC50 was 5.67.

In the case of `NS(=O)(=O)CC1CN(c2nc(OCC34CCCN3CCC4)nc3c(F)c(-c4cccc5cccc(F)c45)ncc23)CCO1` (stereo not drawn) [Example 249, 1-(4-(8-fluoro-7-(8-fluoronaphthalen-1-yl)-2-((tetrahydro-1H-pyrrolizin-7a(5H)-yl)methoxy)pyrido[4,3-d]pyrimidin-4-yl)morpholin-2-yl)methanesulfonamide], the IC50 at KRas Q61H was 808 nM; on KRas G13D, 1280 nM. The negative-log IC50 (pIC50) at KRas G12D was 5.10; on KRas WT, 5.97; against KRas G12A it was 6.01; against KRas G12R it was 6.37; against KRas G12C it was 6.01; on KRas G12V, 5.89. Also, on KRas G12S, the pIC50 is 6.13.

For the compound `CS(=O)(=O)C1CCCCN(c2nc(OCC34CCCN3CCC4)nc3c(F)c(-c4cccc5cccc(F)c45)ncc23)C1` (stereo not drawn) [Example 250, 8-fluoro-7-(8-fluoronaphthalen-1-yl)-2-((hexahydro-1H-pyrrolizin-7a-yl)methoxy)-4-(3-(methylsulfonyl)azepan-1-yl)pyrido[4,3-d]pyrimidine], the IC50 is 5310 nM on KRas Q61H and 3510 nM at KRas G13D. Also, the pIC50 against KRas G12D is 5.14; on KRas WT, 5.45; on KRas G12A, 5.41; on KRas G12R, 5.40; at KRas G12C it was 5.17; on KRas G12V, 5.47. Further, the pIC50 against KRas G12S is 5.42.
